The subject of this data set is mice marrow cells. The settings on record: 20 mg/kg.

The results in this text go back to EP2730585B1, “PROTEIN-P[…] OBTAINED FROM TISSUES OF EMBRYOS OF HOOFED ANIMALS , USE ON SKIN TISSUE, METHOD FOR PRODUCING SAID COMPLEX AND PHARMACEUTICAL COMPOSITION” (Aktsionernoe Obschestvo "Pharm-Sintez", priority 2011, dated 2012).

Experimental: The study objective was detection and quantitative estimate of cytogenetic (mutagenic) activity of pharmacologic substances in polychromatophil cells (PCC) of mammal marrow. The method is based on microscopic recording of cells with micronuclei.
The experiments were performed to 2 months old male and female F1 (CBAx C57BI6/J) cross-breed mice weighing 18-20 g. Each group included 6 animals. The animals were kept at 12 hours light pattern with free food and water access. Animal experiments for assessment of mutagenic properties of the protein/polypeptide complex with single and five-time dosing were conducted in compliance with official records. Three sessions of experiments were carried out with corresponding controls: therapeutic dose was tested on male animals with a single introduction; subtoxic dose was tested on male animals with a single introduction; therapeutic dose was tested on male animals with a single introduction; subtoxic dose was tested on male animals and female with five-time introduction.
Taking into account that the possible presumed method for usage of the PPC at a clinic was intracutaneous, subcutaneous introduction, and external application, in this study subcutaneous introduction of the substance to mice was used. The PPC complex dosing for assessment of mutagenic activity was calculated based on the maximum human recommended daily therapeutic dose (TD). Subcutaneous introduction of PPC was recommended in the amount of 0.2 to 6 ml at 0.1 mg/ml concentration. In this case, a human therapeutic dose (TD), including a child's dose, can be 0.08 mg/kg/daily. In order to calculate an experiment dosing for mice, a conversion factor is recommended that takes into account a human or animal body surface area to weight ratio. In our study, it was 8.33. Therefore, the mice TD was approximately 8.33 x human TD (0.7 mg/kg).
As a subtoxic dose, 10mg/kg, the maximum possible in this experiment conditions dosing was used, as the substance was presented in 0.1 mg/ml concentration, and the normally used amount of substance for mice is 0.1 ml per 10 g. […]

`O=P1(N(CCCl)CCCl)NCCCO1` (stereo not drawn) [Cyclophosphamide, cyclophosphamide]: the “polychromatophilic to normochromatic erythrocytes ratio” value (compared to control P<0.005) is recorded as “found to shift to the latter”. Further, the “frequency of micronucleus cells” value (male mice) is reported as 62.1%. Further, for the setting “male mice, against reference, P<0.001”, the “increased frequency of micronucleus cells” value was found to be 19.6 times.
